In patent US10793543B2, “Selective C-KIT kinase inhibitor” (PRECEDO PHARMACEUTICALS CO., LTD, priority 2016, dated 2020):

Experiments:
[1] = tested on: cells expressing wild-type C-KIT kinase; test: Cell proliferation, C-KIT cells; type: cell-based; details: cells expressing C-KIT kinase, summary of Table 2
From the text: (§1) In the present example, the following cells were used: chronic myelogenous leukemia cells K562 (expressing P210 Bcr-Abl mutant gene), human megakaryocytic leukemia cells MEG-01 (expressing P210 Bcr-Abl mutant gene), human peripheral blood basophilic leukemia cells Ku812 (expressing Bcr-Abl mutant gene) (all above cells purchased from ATCC, USA), human gastrointestinal stromal tumor cell lines GIST-T1 cells (expressing wild-type C-KIT gene) (purchased from Cosmo Bio Co., Ltd., Japan), human gastrointestinal stromal tumor cell lines GIST-882 cells (expressing wild-type C-KIT gene) (presented by the Professor Gray Lab, Dana-Farber Cancer Institute, Harvard University, USA), mouse pro-B cells BaF3 (purchased from ATCC, USA).
(§2) In addition, in the present example, further uses: mouse P210/BaF3 (stably expressing P210 Bcr-Abl mutant gene), mouse Tel-ABL-BaF3 (stably expressing wild-type ABL kinase), mouse Tel-cKit-BaF3 (stably expressing C-KITwild-type kinase), mouse Tel-cKit/V559D-BaF3 (stably expressing C-KIT V559D mutant kinase), mouse Tel-cKit/V559D/V654A-BaF3 (stably expressing C-KIT V559D/V654A mutant kinase), mouse Tel-cKit/N822K-BaF3 (stably expressing C-KIT N822K mutant kinase), mouse Tel-cKit/V654A-BaF3 (stably expressing C-KIT V654A mutant kinase), mouse Tel-cKit/L567P-BaF3 (stably expressing C-KIT L567P mutant kinase), mouse Tel-cKit/T670I-BaF3 (stably expressing C-KIT T670I mutant kinase), mouse Tel-PDGFRα-BaF3 (stably expressing PDGFRα kinase), mouse Tel-PDGFRβ-BaF3 (stably expressing PDGFRβ kinase), mouse Tel-VEGFR2-BaF3 (stably expressing VEGFR2 kinase), mouse Tel-RET-BaF3 (stably expressing RET kinase). The above cell lines were all constructed by our laboratory according to the following method: the kinase region sequences of human P210 Bcr-Abl, ABL, C-KIT, C-KIT V559D, C-KIT V559D/V654A, C-KIT N822K, C-KIT V654A, C-KIT L567P, C-KIT T670I, PDGFRα, PDGFRβ, VEGFR2, RET were amplified respectively by PCR, inserted respectively into MSCV-Puro vectors harboring N-terminal TEL fragment and/or NPM fragment and/or TPR fragment (Clontech), then the vectors were stably transfected into mouse BaF3 cells by retrovirus methods and growth factor IL-3 was removed, eventually obtaining cell lines that are transferred protein (P210 Bcr-Abl, ABL, C-KIT, C-KIT V559D, C-KIT V559D/V654A, C-KIT N822K, C-KIT V654A, C-KIT L567P, C-KIT T670I, PDGFRα, PDGFRβ, VEGFR2, RET)-dependent.
(§3) The cells were incubated for 72 hours, and then the number of viable cells was quantified with a microplate reader by using CCK-8 Cell Viability Assay Kit (purchased from Bestbio Company, Shanghai, China) (CCK-8 can be reduced by dehydrogenase in living cells to a highly water-soluble yellow formazan product, and the amount of formazan produced is proportional to the number of living cells).

[2] = tested on: Tel-cKit/V654A-BaF3 cells (KIT V654A); test: Cell proliferation, CCK-8, Tel-cKit/V654A-BaF3; type: cell-based; details: Mus musculus, 72 hours
From the text: as §2, §3

[3] = tested on: Tel-cKit/V559D-BaF3 cells (KIT V559D); test: Cell proliferation, CCK-8, Tel-cKit/V559D-BaF3; type: cell-based; details: Mus musculus, 72 hours
From the text: as §2, §3

[4] = tested on: BaF3 cells; test: Cell proliferation, CCK-8, parental BaF3; type: cell-based; details: Mus musculus, 72 hours
From the text: as §1, §3

[5] = tested on: Tel-PDGFRα-BaF3 cells (PDGFRα); test: Cell proliferation, CCK-8, Tel-PDGFRα-BaF3; type: cell-based; details: Mus musculus, 72 hours
From the text: as §2, §3

[6] = tested on: Tel-cKit/N822K-BaF3 cells (KIT N822K); test: Cell proliferation, CCK-8, Tel-cKit/N822K-BaF3; type: cell-based; details: Mus musculus, 72 hours
From the text: as §2, §3

[7] = tested on: Tel-cKit-BaF3 cells (KIT WT); test: Cell proliferation, CCK-8, Tel-cKit-BaF3; type: cell-based; details: Mus musculus, 72 hours
From the text: as §2, §3

[8] = tested on: Tel-PDGFRβ-BaF3 cells (PDGFRβ); test: Cell proliferation, CCK-8, Tel-PDGFRβ-BaF3; type: cell-based; details: Mus musculus, 72 hours
From the text: as §2, §3

[9] = tested on: Tel-RET-BaF3 cells (RET WT); test: Cell proliferation, CCK-8, Tel-RET-BaF3; type: cell-based; details: Mus musculus, 72 hours
From the text: as §2, §3

[10] = tested on: GIST-T1 cells; test: Cancer cell proliferation, CCK-8, GIST-T1; type: cell-based; details: Homo sapiens, GISTT1, GIST-T1, KIT WT, 72 hours
From the text: as §1, §3

[11] = tested on: Tel-VEGFR2-BaF3 cells (VEGFR2); test: Cell proliferation, CCK-8, Tel-VEGFR2-BaF3; type: cell-based; details: Mus musculus, Tel-VEGFR2-BaF3, VEGFR2, 72 hours
From the text: as §2, §3

[12] = tested on: Tel-cKit/T670I-BaF3 cells (KIT T670I); test: Cell proliferation, CCK-8, Tel-cKit/T670I-BaF3; type: cell-based; details: Mus musculus, 72 hours
From the text: as §2, §3

[13] = tested on: Tel-cKit/V559D/V654A-BaF3 cells (KIT V559D/V654A); test: Cell proliferation, CCK-8, Tel-cKit/V559D/V654A-BaF3; type: cell-based; details: Mus musculus, 72 hours
From the text: as §2, §3

[14] = tested on: GIST-882 cells; test: Cancer cell proliferation, CCK-8, GIST-882; type: cell-based; details: Homo sapiens, GIST882, GIST-882, KIT WT, 72 hours
From the text: as §1, §3

[15] = tested on: gastrointestinal stromal tumor cell lines GIST-T1; test: Mouse tumor model of GIST-T1 cells; type: in vivo; details: 100 mg/kg oral daily, Day 28 after administration
Experimental: (§4) 1. 4-6 week-old Bal b/c female mice were purchased from Shanghai SLAC Experimental Animal Co., Ltd., and were raised in a SPF-level laboratory. Drinking water and padding were both subjected to aseptic processing via high-pressure disinfection, and all operations of the mice were conducted under aseptic conditions;
(§5) 2. About 5×10^6 gastrointestinal stromal tumor cell lines GIST-T1 or GIST-882 (purchased from ATCC) were respectively injected subcutaneously at left side back of all mice at Day 0;
(§6) 5. Mice were sacrificed on Day 36 (for GIST-882 mouse model) or Day 43 (GIST-T1 mouse model) and subcutaneous tumors were taken out and weighed for comparison;
(§7) 6. Tumor tissue specimens were prepared into protein lysate samples for further usage;
(§8) 7. Growth trend of subcutaneous tumors from Day 16 to Day 43 was derived, and tumor volume was calculated as length×width×width/2 mm^3.

[16] = tested on: Tel-cKit/L576P-BaF3 cells (KIT L576P); test: Cell proliferation, CCK-8, Tel-cKit/L576P-BaF3; type: cell-based; details: Mus musculus, 72 hours
From the text: as §2, §3

[17] = tested on: gastrointestinal stromal tumor cell lines GIST-882; test: Mouse tumor model of GIST-882 cells; type: in vivo; details: GIST-882 model, 100 mg/kg oral daily, Day 21 after administration
Experimental: as §4, §5, §6, §7, §8

[18] = tested on: Ku812 cells (Bcr-Abl); test: Cancer cell proliferation, CCK-8, Ku812; type: cell-based; details: Homo sapiens, KU812, 72 h
From the text: as §1, §3

[19] = tested on: K562 cells (P210 Bcr-Abl); test: Cancer cell proliferation, CCK-8, K562; type: cell-based; details: Homo sapiens, K562, 72 h
From the text: as §1, §3

[20] = tested on: P210/BaF3 cells (P210 Bcr-Abl); test: Cell proliferation, CCK-8, P210/BaF3; type: cell-based; details: Mus musculus, BaF3, 72 h
From the text: (§9) In addition, in the present example, further uses: mouse P210/BaF3 (stably expressing P210 Bcr-Abl mutant gene), mouse Tel-ABL-BaF3 (stably expressing wild-type ABL kinase), mouse Tel-cKit-BaF3 (stably expressing C-KITwild-type kinase), mouse Tel-cKit/V559D-BaF3 (stably expressing C-KIT V559D mutant kinase), mouse Tel-cKit/V559D/V654A-BaF3 (stably expressing C-KIT V559D/V654A mutant kinase), mouse Tel-cKit/N822K-BaF3 (stably expressing C-KIT N822K mutant kinase), mouse Tel-cKit/V654A-BaF3 (stably expressing C-KIT V654A mutant kinase), mouse Tel-cKit/L567P-BaF3 (stably expressing C-KIT L567P mutant kinase), mouse Tel-cKit/T670I-BaF3 (stably expressing C-KIT T670I mutant kinase), mouse Tel-PDGFRα-BaF3 (stably expressing PDGFRα kinase), mouse Tel-PDGFRβ-BaF3 (stably expressing PDGFRβ kinase), mouse Tel-VEGFR2-BaF3 (stably expressing VEGFR2 kinase), mouse Tel-RET-BaF3 (stably expressing RET kinase). […]
as §3

[21] = tested on: MEG-01 cells (P210 Bcr-Abl); test: Cancer cell proliferation, CCK-8, MEG-01; type: cell-based; details: Homo sapiens, MEG-01, 72 h
From the text: as §1, §3

[22] = tested on: Tel-ABL-BaF3 cells (ABL WT); test: Cell proliferation, CCK-8, Tel-ABL-BaF3; type: cell-based; details: Mus musculus, 72 h
From the text: as §9, §3

[23] = Acute toxicity assay in mice, single oral gavage; type: in vivo; details: for Number of death (number of death/number of animals in each group): female mice, 7 days observation
Experimental: 1. 4-6 week-old Bal b/c female mice were purchased from Shanghai SLAC Experimental Animal Co., Ltd., and were raised in a SPF-level laboratory. Drinking water and padding were both subjected to aseptic processing via high-pressure disinfection, and all operations of the mice were conducted under aseptic conditions; 10 healthy mice were selected, and were balanced and randomly divided into 5 groups according to their weights.
2. Specific Information for Administration
Route of administration: oral gavage
Observation period: 7 days.
3. Observation Indicators
Weighing frequency: upon grouping, the day of administration (D0) to the seventh day after administration (D7). Based on the mouse weight on D0 (starting value of 100%), the graph of the relative body weight over time was plotted.
3.2. Clinical Symptoms Observation
Strict observation was carried out within 4 hours after administration, and then observation was carried out twice a day for a total of 7 days. Observation was carried out and abnormal symptoms or phenomena in each of animals were recorded.
The number of animals died in each of dosage groups during the observation period.
Comprehensive determination was performed based on animal mortality, clinical symptoms and body weights.

[24] = tested on: phosphorylation of Bcr-Abl kinase and pathway proteins in K562 cells; test: Effects on cell signaling pathways (phosphorylation), K562; type: cell-based, human; details: K562, 0.1 μM, 2 hours

SMILES | GI50 [1] | GI50 [2] | GI50 [3] | GI50 [4] | GI50 [5] | GI50 [6] | GI50 [7] | GI50 [8] | GI50 [9] | GI50 [10] | GI50 [11] | GI50 [12] | GI50 [13] | GI50 [14] | GI50 [16] | further results
Cc1ccc(NC(=O)c2ccc(CN3CCN(C)CC3)c(C(F)(F)F)c2)cc1OC1CCN(C(=O)c2ccncc2)CC1 [B] | < 500 nM | 585 nM | 20 nM | > 10000 nM | 15 nM | 130 nM | 170 nM | 40 nM | 300 nM | 27 nM | 7 nM |  |  |  |  | 
C=CC(=O)N1CCC(Oc2cc(NC(=O)c3ccc(CN4CCN(C)CC4)c(C(F)(F)F)c3)ccc2C)CC1 [Compound C] | < 500 nM | 401 nM | 36 nM | > 10000 nM | 36 nM | 380 nM |  | 42 nM | 490 nM | 30 nM | 5 nM | 952 nM |  |  |  | 
Cc1ccc(NC(=O)c2ccc(CN3CCN(C)CC3)cc2)cc1Nc1nccc(-c2cccnc2)n1 [imatinib] | < 500 nM | 2490 nM | 39 nM | > 10000 nM |  | 1290 nM | 412 nM |  | 6310 nM | 8 nM | > 10000 nM | 6670 nM | 3000 nM | 14 nM | 102 nM | tumor inhibition rate [15]: 72.4%; tumor inhibition rate [17]: 49%
Cc1cn(-c2cc(NC(=O)c3ccc(C)c(Nc4nccc(-c5cccnc5)n4)c3)cc(C(F)(F)F)c2)cn1 [nilotinib] | < 500 nM | 365 nM | 22 nM | > 10000 nM | 32 nM | 166 nM | 47 nM | 32 nM | 2660 nM | 6 nM | 5380 nM | 2860 nM | 648 nM | 17 nM | 81 nM | GI50 [18]: 1.2 nM; GI50 [19]: 3 nM; GI50 [20]: 12.5 nM; GI50 [21]: 0.4 nM; GI50 [22]: 26 nM
Cc1ccc(NC(=O)c2ccc(CN3CCN(C)CC3)c(C(F)(F)F)c2)cc1OC1CCN(C(=O)c2cccnc2)CC1 [Compound A] |  | 2260 nM | 134 nM | > 10000 nM | 95 nM | 378 nM | 147 nM | 52 nM | 390 nM | 14 nM | 17 nM | 1010 nM | 2450 nM | 67 nM | 321 nM | Number of death (number of death/number of animals in each group) ([23]; 250 mg/kg single oral gavage): ♀: 0/2; Number of death (number of death/number of animals in each group) ([23]; 500 mg/kg single oral gavage): ♀: 0/2; clinical symptoms ([23]; 1000 mg/kg single oral gavage): started to be quiet and lie down around 40 minutes; mice died ([23]; 1000 mg/kg single oral gavage): 1; Number of death (number of death/number of animals in each group) ([23]; 1000 mg/kg single oral gavage): ♀: 1/2; clinical symptoms ([23]; 2000 mg/kg single oral gavage): gait of mice was unstable; mice died ([23]; 2000 mg/kg single oral gavage): 2; Number of death (number of death/number of animals in each group) ([23]; 2000 mg/kg single oral gavage): ♀: 2/2; proteins in Bcr-Abl signaling pathways upstream and downstream [24]: very strong inhibitory effects
